US11702422B2, “Imidazopyridazines as modulators of IL-17” (Janssen Pharmaceutica NV, priority 2020, dated 2023)
pIC50: −log10 of the molar value.

Experiments:
[1] = test system: IL-17A-induced G-CSF production in human normal keratinocyte (NHK); test: NHK Assay: IL-17A-induced G-CSF production in human normal keratinocytes; type: cell-based; settings: adult normal human keratinocytes, IL-17A 5 ng/mL, 24 h, simple average if tested more than once
Summary of the method: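 Titrated compound plus recombinant human IL-17A (pre-incubated 1 h, rt) were applied to adult human keratinocytes at 5 ng/mL cytokine, 0.2% DMSO. Cultures ran 24 h at 37° C, and supernatant G-CSF was measured by HTRF to derive IC50.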

[2] = biological target: IL-17A(FLAG-Tagged): IL-17RA(His-Tagged) (Homo sapiens, UniProt Q16552, K93Q); test: IL-17A(FLAG-Tagged): IL-17RA(His-Tagged) Binding Disruption Eu-HTRF Assay; settings: IL-17A/IL-17RA binding disruption, simple average if tested more than once
Chain of UniProt Q16552 (Q16552 with tags, fused parts or gaps K93Q): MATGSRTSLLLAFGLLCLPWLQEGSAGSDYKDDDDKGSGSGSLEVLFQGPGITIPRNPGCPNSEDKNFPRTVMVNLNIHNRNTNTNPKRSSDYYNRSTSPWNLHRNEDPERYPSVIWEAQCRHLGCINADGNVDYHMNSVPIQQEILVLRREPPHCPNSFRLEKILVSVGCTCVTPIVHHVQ
Summary of the method: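 IC50 comes from a one-site competition fit of the HTRF 665/620 nm ratio. Compound dilutions (2-fold, 22 points) were held 1 h rt with FLAG-tagged IL-17A dimer, then His-tagged IL-17RA plus Eu-cryptate anti-FLAG and D2 anti-His antibodies were added for 2 h rt.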

Q: `O=C(CCC(F)(F)F)NC(c1cnn2cc([C@@H](NC(=O)c3cnn(CCC(F)(F)F)c3)C3CCC(F)(F)CC3)nc2c1)C1CC1` (single isomer, unassigned) [Example 7, N—((S)-(7-((S*)-Cyclopropyl(4,4,4-trifluorobutanamido)methyl)imidazo[1,2-b]pyridazin-2-yl)(4,4-difluorocyclohexyl)methyl)-1-(3,3,3-trifluoropropyl)-1H-pyrazole-4-carboxamide] was tested. Which pIC50 [1] did it give?
A: < 4.70

Q: And the pIC50 [2]?
A: 5.31

Q: `O=C(CC1CC(F)(F)C1)NC(c1cnn2cc([C@@H](NC(=O)c3cnn(CCC(F)(F)F)c3)C3CCC(F)(F)CC3)nc2c1)C1CC1` (single isomer, unassigned) [Example 8, N—((S)-(7-((R*)-Cyclopropyl(2-(3,3-difluorocyclobutyl)acetamido)methyl)imidazo[1,2-b]pyridazin-2-yl)(4,4-difluorocyclohexyl)methyl)-1-(3,3,3-trifluoropropyl)-1H-pyrazole-4-carboxamide] was tested. Which pIC50 [1] did it give?
A: 6.44

Q: And the pIC50 [2]?
A: 6.66

Q: `O=C(CC1CC(F)(F)C1)NC(c1cnn2cc([C@@H](NC(=O)c3cnn(CCC(F)(F)F)c3)C3CCC(F)(F)CC3)nc2c1)C1CC1` (single isomer, unassigned) [Example 9, N—((S)-(7-((S*)-Cyclopropyl(2-(3,3-difluorocyclobutyl)acetamido)methyl)imidazo[1,2-b]pyridazin-2-yl)(4,4-difluorocyclohexyl)methyl)-1-(3,3,3-trifluoropropyl)-1H-pyrazole-4-carboxamide] was tested. Which pIC50 [1] did it give?
A: < 4.70

Q: And the pIC50 [2]?
A: 5.08

Q: `CC(C)n1nccc1C(=O)N[C@H](c1cn2ncc(C(NC(=O)CC(C(F)(F)F)C(F)(F)F)C3CC3)cc2n1)C1CCC(F)(F)CC1` (single isomer, unassigned) [Example 10, N—((S)-(7-((R*)-Cyclopropyl(4,4,4-trifluoro-3(trifluoromethyl)butanamido)methyl)imidazo[1,2-b]pyridazin-2-yl)(4,4-difluorocyclohexyl)methyl)-1-isopropyl-1H-pyrazole-5-carboxamide] was tested. Which pIC50 [1] did it give?
A: 7.36

Q: And the pIC50 [2]?
A: 6.68

Q: What does the source list for `CC(C)n1nccc1C(=O)N[C@H](c1cn2ncc(C(NC(=O)CC(C(F)(F)F)C(F)(F)F)C3CC3)cc2n1)C1CCC(F)(F)CC1` (single isomer, unassigned) [Example 11, N-((S)-(7-((S*)-Cyclopropyl(4,4,4-trifluoro-3-(trifluoromethyl)butanamido)methyl)imidazo[1,2-b]pyridazin-2-yl)(4,4-difluorocyclohexyl)methyl)-1-isopropyl-1H-pyrazole-5-carboxamide]?
A: pIC50 [1]: 5.85; pIC50 [2]: 6.16

Q: With `O=C(CCC(F)(F)F)NC(c1cnn2cc([C@@H](NC(=O)c3ccccc3)C3CCC(F)(F)CC3)nc2c1)C1CC1` (single isomer, unassigned) [Example 12, N—((S)-(7-((R*)-Cyclopropyl(4,4,4-trifluorobutanamido)methyl)imidazo[1,2-b]pyridazin-2-yl)(4,4-difluorocyclohexyl)methyl)benzamide] as the compound, how does the pIC50 [1] read?
A: 6.74

Q: And the pIC50 [2]?
A: 7.07

Q: How did the pIC50 [1] turn out when `CC(C)n1nccc1C(=O)N[C@H](c1cn2ncc(C(NC(=O)CCC(F)(F)F)C3CC3)cc2n1)C1CCC(F)(F)CC1` (single isomer, unassigned) [Example 14, N—((S)-(7-((R*)-Cyclopropyl(4,4,4-trifluorobutanamido)methyl)imidazo[1,2-b]pyridazin-2-yl)(4,4-difluorocyclohexyl)methyl)-1-isopropyl-1H-pyrazole-5-carboxamide] was run?
A: 7.30

Q: And the pIC50 [2]?
A: 6.92

Q: Which results are given for `CC(C)n1nccc1C(=O)N[C@H](c1cn2ncc(C(NC(=O)CCC(F)(F)F)C3CC3)cc2n1)C1CCC(F)(F)CC1` (single isomer, unassigned) [Example 15, N—((S)-(7-((S*)-Cyclopropyl(4,4,4-trifluorobutanamido)methyl)imidazo[1,2-b]pyridazin-2-yl)(4,4-difluorocyclohexyl)methyl)-1-isopropyl-1H-pyrazole-5-carboxamide]?
A: pIC50 [1]: 5.32; pIC50 [2]: 5.72

Q: How did the pIC50 [1] turn out when `O=C(CC(C(F)(F)F)C(F)(F)F)NC(c1cnn2cc([C@@H](NC(=O)c3ccccc3)C3CCC(F)(F)CC3)nc2c1)C1CC1` (single isomer, unassigned) [Example 16, N—((S)-(7-((R*)-Cyclopropyl(4,4,4-trifluoro-3-(trifluoromethyl)butanamido)methyl)imidazo[1,2-b]pyridazin-2-yl)(4,4-difluorocyclohexyl)methyl)benzamide] was run?
A: 6.89

Q: What about the pIC50 [2] of the same compound?
A: 6.89

Q: What does the source list for `O=C(CC(C(F)(F)F)C(F)(F)F)NC(c1cnn2cc([C@@H](NC(=O)c3ccccc3)C3CCC(F)(F)CC3)nc2c1)C1CC1` (single isomer, unassigned) [Example 17, N—((S)-(7-((S*)-Cyclopropyl(4,4,4-trifluoro-3-(trifluoromethyl)butanamido)methyl)imidazo[1,2-b]pyridazin-2-yl)(4,4-difluorocyclohexyl)methyl)benzamide]?
A: pIC50 [1]: 5.92; pIC50 [2]: 5.89

Q: How did the pIC50 [1] turn out when `O=C(CCC(F)(F)F)NC(c1cnn2cc([C@@H](NC(=O)c3cnn(CCC(F)(F)F)n3)C3CCC(F)(F)CC3)nc2c1)C1CC1` (single isomer, unassigned) [Example 18, N—((S)-(7-((R*)-Cyclopropyl(4,4,4-trifluorobutanamido)methyl)imidazo[1,2-b]pyridazin-2-yl)(4,4-difluorocyclohexyl)methyl)-2-(3,3,3-trifluoropropyl)-2H-1,2,3-triazole-4-carboxamide] was run?
A: 6.38

Q: What about the pIC50 [2] of the same compound?
A: 6.72

Q: With `O=C(CCC(F)(F)F)NC(c1cnn2cc([C@@H](NC(=O)c3cnn(CCC(F)(F)F)n3)C3CCC(F)(F)CC3)nc2c1)C1CC1` (single isomer, unassigned) [Example 19, N—((S)-(7-((S*)-Cyclopropyl(4,4,4-trifluorobutanamido)methyl)imidazo[1,2-b]pyridazin-2-yl)(4,4-difluorocyclohexyl)methyl)-2-(3,3,3-trifluoropropyl)-2H-1,2,3-triazole-4-carboxamide] as the compound, how does the pIC50 [1] read?
A: 5.42

Q: And the pIC50 [2]?
A: 5.41

Q: With `O=C(CC1CC(F)(F)C1)NC(c1cnn2cc([C@@H](NC(=O)c3ccn(CCC(F)(F)F)n3)C3CCC(F)(F)CC3)nc2c1)C1CC1` (single isomer, unassigned) [Example 20, N—((S)-(7-((R*)-Cyclopropyl(2-(3,3-difluorocyclobutyl)acetamido)methyl)imidazo[1,2-b]pyridazin-2-yl)(4,4-difluorocyclohexyl)methyl)-1-(3,3,3-trifluoropropyl)-1H-pyrazole-3-carboxamide] as the compound, how does the pIC50 ([1]; Homo sapiens, Keratinocyte) read?
A: 6.19

Q: And the pIC50 [2]?
A: 6.80

Q: What does the source list for `O=C(CCC(F)(F)F)NC(c1cnn2cc([C@@H](NC(=O)c3ccn(CCC(F)(F)F)n3)C3CCC(F)(F)CC3)nc2c1)C1CC1` (single isomer, unassigned) [Example 21, N—((S)-(7-((R*)-Cyclopropyl(4,4,4-trifluorobutanamido)methyl)imidazo[1,2-b]pyridazin-2-yl)(4,4-difluorocyclohexyl)methyl)-1-(3,3,3-trifluoropropyl)-1H-pyrazole-3-carboxamide]?
A: pIC50 ([1]; Homo sapiens, Keratinocyte): 6.14; pIC50 [2]: 6.64

Q: What does the source list for `O=C(CC1CC(F)(F)C1)NC(c1cnn2cc([C@@H](NC(=O)c3cnn(CCC(F)(F)F)n3)C3CCC(F)(F)CC3)nc2c1)C1CC1` (single isomer, unassigned) [Example 22, N—((S)-(7-((R*)-Cyclopropyl(2-(3,3-difluorocyclobutyl)acetamido)methyl)imidazo[1,2-b]pyridazin-2-yl)(4,4-difluorocyclohexyl)methyl)-2-(3,3,3-trifluoropropyl)-2H-1,2,3-triazole-4-carboxamide]?
A: pIC50 ([1]; Homo sapiens, Keratinocyte): 6.49; pIC50 [2]: 6.85

Q: `Cn1nccc1C(=O)N[C@H](c1cn2ncc(C(NC(=O)CCC(F)(F)F)C3CC3)cc2n1)C1CCC(F)(F)CC1` (single isomer, unassigned) [Example 23, N—((S)-(7-((R*)-Cyclopropyl(4,4,4-trifluorobutanamido)methyl)imidazo[1,2-b]pyridazin-2-yl)(4,4-difluorocyclohexyl)methyl)-1-methyl-1H-pyrazole-5-carboxamide] was tested. Which pIC50 ([1]; Homo sapiens, Keratinocyte) did it give?
A: 7.09

Q: What about the pIC50 [2] of the same compound?
A: 7.27

Q: With `Cn1nccc1C(=O)N[C@H](c1cn2ncc(C(NC(=O)CC3CC(F)(F)C3)C3CC3)cc2n1)C1CCC(F)(F)CC1` (single isomer, unassigned) [Example 24, N—((S)-(7-((R*)-Cyclopropyl(2-(3,3-difluorocyclobutyl)acetamido)methyl)imidazo[1,2-b]pyridazin-2-yl)(4,4-difluorocyclohexyl)methyl)-1-methyl-1H-pyrazole-5-carboxamide] as the compound, how does the pIC50 ([1]; Homo sapiens, Keratinocyte) read?
A: 7.08

Q: What about the pIC50 [2] of the same compound?
A: 7.20

Q: How did the pIC50 ([1]; Homo sapiens, Keratinocyte) turn out when `O=C(CC1CC(F)(F)C1)NC(c1cnn2cc([C@@H](NC(=O)c3cnn(CC4CC4)n3)C3CCC(F)(F)CC3)nc2c1)C1CC1` (single isomer, unassigned) [Example 26, N—((S)-(7-((R*)-Cyclopropyl(2-(3,3-difluorocyclobutyl)acetamido)methyl)imidazo[1,2-b]pyridazin-2-yl)(4,4-difluorocyclohexyl)methyl)-2-(cyclopropylmethyl)-2H-1,2,3-triazole-4-carboxamide] was run?
A: 6.64

Q: And the pIC50 [2]?
A: 7.17

Q: How did the pIC50 ([1]; Homo sapiens, Keratinocyte) turn out when `O=C(CCC(F)(F)F)NC(c1cnn2cc([C@@H](NC(=O)c3cnn(CC(F)(F)F)n3)C3CCC(F)(F)CC3)nc2c1)C1CC1` (single isomer, unassigned) [Example 27, N—((S)-(7-((R*)-Cyclopropyl(4,4,4-trifluorobutanamido)methyl)imidazo[1,2-b]pyridazin-2-yl)(4,4-difluorocyclohexyl)methyl)-2-(2,2,2-trifluoroethyl)-2H-1,2,3-triazole-4-carboxamide] was run?
A: 6.19

Q: And the pIC50 [2]?
A: 7.00
